From the NIST ThermoML archive (doi:10.1016/j.jct.2011.12.008)
Numbers after ± are expanded uncertainties.

Assay: xn = mol fraction of the nth substance listed
Conditions: 101 kPa, Liquid; for viscosity: Capillary tube (Ostwald / Ubbelohde) method; for mass density: Vibrating tube method

NCCCO [3-amino-1-propanol] + CCCCCCn1cc[n+](C)c1.F[B-](F)(F)F
Conditions | mass density [kg/m3] | viscosity [mPa·s]
293.15 K, x2 = 0 | 987.55 ± 0.23 | 39.29 ± 1.6
293.15 K, x2 = 0.0536 | 1010.87 ± 0.31 | 39.35 ± 1.6
293.15 K, x2 = 0.0969 | 1026.17 ± 0.32 | 42.89 ± 1.8
293.15 K, x2 = 0.202 | 1055.57 ± 0.38 | 49.26 ± 2.1
293.15 K, x2 = 0.3217 | 1080.32 ± 0.47 | 56.99 ± 2.4
293.15 K, x2 = 0.4942 | 1105.94 ± 0.62 | 77.82 ± 3.3
293.15 K, x2 = 0.6135 | 1118.92 ± 0.73 | 97.27 ± 4.2
293.15 K, x2 = 0.7276 | 1129.17 ± 0.85 | 125.01 ± 5.6
293.15 K, x2 = 0.8343 | 1137.49 ± 0.96 | 163.87 ± 7.5
293.15 K, x2 = 0.9204 | 1143.7 ± 1.1 | 192.2 ± 9.1
298.15 K, x2 = 0 | 983.55 ± 0.23 | 30.43 ± 1.3
298.15 K, x2 = 0.0536 | 1006.96 ± 0.3 | 30.8 ± 1.3
298.15 K, x2 = 0.0969 | 1022.3 ± 0.31 | 33.2 ± 1.4
298.15 K, x2 = 0.202 | 1051.74 ± 0.38 | 37.85 ± 1.6
298.15 K, x2 = 0.3217 | 1076.53 ± 0.47 | 44.61 ± 1.9
298.15 K, x2 = 0.4942 | 1102.24 ± 0.62 | 59.65 ± 2.5
298.15 K, x2 = 0.6135 | 1115.24 ± 0.73 | 74.53 ± 3.2
298.15 K, x2 = 0.7276 | 1125.66 ± 0.84 | 95.2 ± 4.1
298.15 K, x2 = 0.8343 | 1134.08 ± 0.95 | 123.47 ± 5.5
298.15 K, x2 = 0.9204 | 1140.23 ± 1.1 | 148.27 ± 6.8
303.15 K, x2 = 0 | 979.53 ± 0.23 | 23.87 ± 0.99
303.15 K, x2 = 0.0536 | 1003.04 ± 0.3 | 24.16 ± 1
303.15 K, x2 = 0.0969 | 1018.41 ± 0.31 | 26.02 ± 1.1
303.15 K, x2 = 0.202 | 1047.91 ± 0.38 | 29.45 ± 1.2
303.15 K, x2 = 0.3217 | 1072.75 ± 0.47 | 34.55 ± 1.4
303.15 K, x2 = 0.4942 | 1098.55 ± 0.61 | 46.03 ± 1.9
303.15 K, x2 = 0.6135 | 1111.63 ± 0.72 | 57.96 ± 2.4
303.15 K, x2 = 0.7276 | 1122.11 ± 0.83 | 73.65 ± 3.1
303.15 K, x2 = 0.8343 | 1130.63 ± 0.95 | 95.84 ± 4.2
303.15 K, x2 = 0.9204 | 1136.88 ± 1 | 115.79 ± 5.1
308.15 K, x2 = 0 | 975.51 ± 0.23 | 19.07 ± 0.79
308.15 K, x2 = 0.0536 | 999.11 ± 0.3 | 19.14 ± 0.79
308.15 K, x2 = 0.0969 | 1014.5 ± 0.31 | 20.58 ± 0.86
308.15 K, x2 = 0.202 | 1044.05 ± 0.37 | 23.41 ± 0.98
308.15 K, x2 = 0.3217 | 1068.95 ± 0.46 | 27.53 ± 1.1
308.15 K, x2 = 0.4942 | 1094.86 ± 0.61 | 36.45 ± 1.5
308.15 K, x2 = 0.6135 | 1108.04 ± 0.71 | 45.81 ± 1.9
308.15 K, x2 = 0.7276 | 1118.58 ± 0.83 | 58.09 ± 2.4
308.15 K, x2 = 0.8343 | 1127.18 ± 0.94 | 75.38 ± 3.2
308.15 K, x2 = 0.9204 | 1133.5 ± 1 | 91.04 ± 3.9
313.15 K, x2 = 0 | 971.47 ± 0.23 | 15.27 ± 0.63
313.15 K, x2 = 0.0536 | 995.18 ± 0.3 | 15.64 ± 0.65
313.15 K, x2 = 0.0969 | 1010.6 ± 0.3 | 16.63 ± 0.69
313.15 K, x2 = 0.202 | 1040.2 ± 0.37 | 18.74 ± 0.78
313.15 K, x2 = 0.3217 | 1065.16 ± 0.46 | 22.05 ± 0.92
313.15 K, x2 = 0.4942 | 1091.16 ± 0.6 | 29.14 ± 1.2
313.15 K, x2 = 0.6135 | 1104.43 ± 0.71 | 36.47 ± 1.5
313.15 K, x2 = 0.7276 | 1115.05 ± 0.82 | 46.32 ± 1.9
313.15 K, x2 = 0.8343 | 1123.73 ± 0.93 | 59.62 ± 2.5
313.15 K, x2 = 0.9204 | 1130.12 ± 1 | 71.6 ± 3
318.15 K, x2 = 0 | 967.43 ± 0.23 | 12.35 ± 0.51
318.15 K, x2 = 0.0536 | 991.28 ± 0.3 | 12.68 ± 0.52
318.15 K, x2 = 0.0969 | 1006.67 ± 0.3 | 13.6 ± 0.56
318.15 K, x2 = 0.202 | 1036.34 ± 0.37 | 15.76 ± 0.65
318.15 K, x2 = 0.3217 | 1061.36 ± 0.45 | 18.42 ± 0.76
318.15 K, x2 = 0.4942 | 1087.47 ± 0.6 | 23.9 ± 1
318.15 K, x2 = 0.6135 | 1100.82 ± 0.7 | 28.64 ± 1.2
318.15 K, x2 = 0.7276 | 1111.54 ± 0.82 | 37.85 ± 1.6
318.15 K, x2 = 0.8343 | 1120.28 ± 0.93 | 48.22 ± 2
318.15 K, x2 = 0.9204 | 1126.73 ± 1 | 58.5 ± 2.5
323.15 K, x2 = 0 | 963.37 ± 0.23 | 10.22 ± 0.42
323.15 K, x2 = 0.0536 | 987.32 ± 0.3 | 10.61 ± 0.44
323.15 K, x2 = 0.0969 | 1002.75 ± 0.3 | 11.16 ± 0.46
323.15 K, x2 = 0.202 | 1032.48 ± 0.36 | 12.61 ± 0.52
323.15 K, x2 = 0.3217 | 1057.55 ± 0.45 | 15.89 ± 0.66
323.15 K, x2 = 0.4942 | 1083.77 ± 0.59 | 19.73 ± 0.82
323.15 K, x2 = 0.6135 | 1097.21 ± 0.7 | 24.2 ± 1
323.15 K, x2 = 0.7276 | 1108.02 ± 0.81 | 31.19 ± 1.3
323.15 K, x2 = 0.8343 | 1116.83 ± 0.92 | 39.61 ± 1.7
323.15 K, x2 = 0.9204 | 1123.36 ± 1 | 47.9 ± 2
328.15 K, x2 = 0 | 959.3 ± 0.23 | 8.535 ± 0.35
328.15 K, x2 = 0.0536 | 983.35 ± 0.3 | 8.7 ± 0.36
328.15 K, x2 = 0.0969 | 998.8 ± 0.3 | 9.325 ± 0.38
328.15 K, x2 = 0.202 | 1028.62 ± 0.36 | 10.96 ± 0.45
328.15 K, x2 = 0.3217 | 1053.76 ± 0.44 | 13.04 ± 0.54
328.15 K, x2 = 0.4942 | 1080.08 ± 0.59 | 16.58 ± 0.69
328.15 K, x2 = 0.6135 | 1093.61 ± 0.69 | 19.92 ± 0.83
328.15 K, x2 = 0.7276 | 1104.51 ± 0.8 | 26.05 ± 1.1
328.15 K, x2 = 0.8343 | 1113.4 ± 0.91 | 33.11 ± 1.4
328.15 K, x2 = 0.9204 | 1119.94 ± 1 | 41.26 ± 1.7
333.15 K, x2 = 0 | 955.22 ± 0.23 | 7.123 ± 0.29
333.15 K, x2 = 0.0536 | 979.37 ± 0.3 | 7.144 ± 0.29
333.15 K, x2 = 0.0969 | 994.86 ± 0.3 | 7.836 ± 0.32
333.15 K, x2 = 0.202 | 1024.75 ± 0.36 | 8.918 ± 0.37
333.15 K, x2 = 0.3217 | 1049.98 ± 0.44 | 10.47 ± 0.43
333.15 K, x2 = 0.4942 | 1076.4 ± 0.58 | 13.86 ± 0.57
333.15 K, x2 = 0.6135 | 1090.05 ± 0.69 | 17.14 ± 0.71
333.15 K, x2 = 0.7276 | 1101.02 ± 0.8 | 21.81 ± 0.91
333.15 K, x2 = 0.8343 | 1109.97 ± 0.91 | 27.5 ± 1.2
333.15 K, x2 = 0.9204 | 1116.55 ± 1 | 37.45 ± 1.6
338.15 K, x2 = 0 | 951.14 ± 0.23 | 6.045 ± 0.25
338.15 K, x2 = 0.0536 | 975.37 ± 0.3 | 6.221 ± 0.25
338.15 K, x2 = 0.0969 | 990.91 ± 0.3 | 6.676 ± 0.28
338.15 K, x2 = 0.202 | 1020.88 ± 0.36 | 7.634 ± 0.31
338.15 K, x2 = 0.3217 | 1046.21 ± 0.44 | 9.153 ± 0.38
338.15 K, x2 = 0.4942 | 1072.72 ± 0.58 | 11.94 ± 0.49
338.15 K, x2 = 0.6135 | 1086.5 ± 0.68 | 14.71 ± 0.61
338.15 K, x2 = 0.7276 | 1097.55 ± 0.79 | 18.64 ± 0.77
338.15 K, x2 = 0.8343 | 1106.57 ± 0.9 | 23.24 ± 0.96
338.15 K, x2 = 0.9204 | 1113.17 ± 1 | 32.09 ± 1.4
